Assay results published in patent US20250250582A1, “Plant Cells and Plants Modified to Increase Herbicide Resistance and Stress Tolerance and Methods of Using the Same” (The Board of Trustees of the University of Arkansas, priority 2018, published 2025).
Several values for one entry are separate records, joined by “and”; a condition that tells them apart may be missing. Equal values may be shown once.

Key:
[1] = tested on: multiple-resistant E. colona (ECO-R); assay: Herbicide resistance profile of ECO-R; assay type: in vivo, Echinochloa colona; details: data not shown
Excerpt: Beginning in 2010, through the 2016 cropping cycle, Echinochloa spp. from throughout the rice producing counties of Arkansas, USA, located along the Mississippi River were sampled for a survey of the current status of herbicide resistance. Seeds were bulk sampled from plants that had matured in rice and soybean production fields, which had survived at least one herbicide application, were collected and sent to the University of Arkansas Altheimer Laboratory in Fayetteville for characterization and evaluation of herbicide resistance to common rice herbicides. […] From this screening program, two populations of E. colona were selected for use in this experiment. […] To establish inbred and homozygous accessions for the experiment, a single plant, verified as resistant/susceptible of ECO-R and ECO-S were grown in isolation to produce seed for further experiments.
Accession source and population profiling. From 2010 to 2016, the University of Arkansas weed physiology group has been collecting putative herbicide-resistant Echinochloa populations from rice production fields throughout the state of Arkansas. […] Collections took place in the late summer to early fall prior to rice harvest; these accessions were bulk sampled by in-field location and farm, with field histories collected when possible. All of the samples were submitted to the University of Arkansas Altheimer Laboratory for assessment of their resistance profile and characterized according to their species. […] Populations with unique profiles and of interest for further research were then grown in isolation to produce pureline seed. […] Another accession, E. colona susceptible (ECO-S), was also selected and grown in isolation. This accession was selected because of its similar cropping history and geographic location, as well as its high level of susceptibility to the herbicides of interest.

[2] = tested on: multiple-resistant E. colona (ECO-R); assay: RNA-sequencing differential gene expression, herbicide-treated vs nontreated ECO-R; details: 24 h
Excerpt: Pure-line generated seed of each accession were germinated in pots containing potting soil within a temperature/light controlled growth chamber set to a 14-hr day length, 33 C day temperature, and 24 C night time to simulate environmental conditions early in the rice growing season. A single plant was maintained in each of the pots and used for the treatments; two pots were used as individual biological replicates. […] Pots for each of the respective treatments were labeled as either ECO-R/S-T for the treated samples and ECO-R/S-N for the non-treated counterpart. To minimize the effect that the sprayer may play in the application, both plants of the ECO-R and ECO-S were treated at the same time. After approximately 30 minutes, allowing for the plants to dry, the treated and non-treated plants of both accessions were moved back into the growth chamber. Precisely 24-hours after application, the aboveground portion of each of the plants were removed and immediately frozen in liquid nitrogen to cease all biological function. Samples were then transferred to RNAlater™-ICE (Invitrogen, Carlsbad CA, USA) for shipment to the Clemson University Genomics Institute (CUGI), in Clemson, South Carolina.
RNA was extracted from the young leaf tissues of both replications for the ECO-R and ECO-S, T and N samples, at Clemson University. Total RNA was extracted with a kit according to the manufactures instructions. The extracted RNA was treated with DNase (Invitrogen, Calsbad, CA, USA) to remove any DNA contamination prior to further processing. The samples were prepared for sequencing by CUGI. For library preparation, the TruSeq Stranded Total RNA kit (Illumina Inc., San Diego, CA, USA) was used according to the instructions provided by the manufacturer to produce a paired-end library for sequencing. Ribosomal RNA was removed using target-specific oligonucleotides paired with rRNA removal beads, removing all cytoplasmic and mitochondrial rRNA that may result in poor quality results. RNA was fragmented and reverse transcribed to cDNA using random primers, followed by a second strand cDNA synthesis. Each fragment is then ligated with an additional ‘A’ and an adapter for sequencing. The PCR enriched product is then used to create the final cDNA library. All samples were sequenced on an Illumina Hiseq 2500 platform housed in the Holdings Cancer Center at the Medical University of South Carolina, Charleston, SC, USA. Samples, regardless of treatments or replication were ran across three lanes to reduce sequencing errors from the equipment. The resulting data were processed by CUGI.
A de novo transcriptome was assembled from the treatments described for this experiment as well as several treatments, which included herbicides profiled in ECO-R. The treatments were applied to both ECO-R and ECO-S samples with two replications as described previously. In total, 20 individual plants, from both the ECO-R and ECO-S accessions, as well as T and NT samples, were used for the assembly. The transcriptome was assembled using the Trinity RNA-Seq pipeline (Broad Institute, Cambridge, MA, USA). Raw data were assessed for quality using FastQC (Babraham Institute, Cambridge, UK) and then processed to remove adapter sequences and low quality bases using a sliding window method. The processed data were then rerun using FastQC to ensure high quality reads. Using the TrinityRNASeq 2.2.0 software, the samples were normalized, by replication, using a coverage size of 100 and kmer of 32. The normalized reads were then assembled as transcripts and genes using Trinity with the stranded library set as the default.

Q: With `CCC(=O)Nc1ccc(Cl)c(Cl)c1` [propanil] as the compound, how does the level of resistance [1] read?
A: The level of resistance was > 8 × field dose.

Q: And the “ABC transporter C family member 10 Fold Change” value ([2]; ECO-R-T vs ECO-R-N)?
A: The value was 7.4 fold.

Q: What about the “ACC oxidase fold change” value ([2]; ECO-R-T vs ECO-R-N) of the same compound?
A: The value was −4.5 fold.

Q: What about the “ACCase 2 fold change” value ([2]; ECO-R-T vs ECO-R-N) of the same compound?
A: Its value is −10.2 fold.

Q: And the ACCase fold change ([2]; ECO-R-T vs ECO-R-N)?
A: The ACCase fold change was −9.7 fold.

Q: And the “ADP sugar pyrophosphatase fold change” value ([2]; ECO-R-T vs ECO-R-N)?
A: The value was −7.2 fold.

Q: And the “Beta-glucosidase 22 fold change” value ([2]; ECO-R-T vs ECO-R-N)?
A: Its value is 3.6 fold.

Q: What about the “CYP72A11 Fold Change” value ([2]; ECO-R-T vs ECO-R-N) of the same compound?
A: Its value is 3.1 fold.

Q: And the “CYP72A13 Fold Change” value ([2]; ECO-R-T vs ECO-R-N)?
A: The value was 3.8 fold.

Q: And the “CYP72A15 Fold Change” value ([2]; ECO-R-T vs ECO-R-N)?
A: Its value is 2.6 fold and 3.4 fold and 2.9 fold.

Q: What about the “CYP89A2 Fold Change” value ([2]; ECO-R-T vs ECO-R-N) of the same compound?
A: The value was 2.5 fold and 3.8 fold and 3.6 fold.

Q: What about the “CYP709B1 Fold Change” value ([2]; ECO-R-T vs ECO-R-N) of the same compound?
A: Its value is 7.0 fold.

Q: What about the ERF7 fold change ([2]; ECO-R-T vs ECO-R-N) of the same compound?
A: The ERF7 fold change was 6.7 fold.

Q: And the ERF060 fold change ([2]; ECO-R-T vs ECO-R-N)?
A: Its ERF060 fold change is 2.1 fold.

Q: And the “GST23 Fold Change” value ([2]; ECO-R-T vs ECO-R-N)?
A: Its value is 6.7 fold.

Q: What about the “GSTU17 fold change” value ([2]; ECO-R-T vs ECO-R-N) of the same compound?
A: The value was 7.9 fold.

Q: What about the “NADH-cytochrome b5 reductase proteins fold change” value ([2]; ECO-R-T vs ECO-R-N) of the same compound?
A: The value was < −7.4 fold.

Q: What about the “NADP-dependent malic enzyme fold change” value ([2]; ECO-R-T vs ECO-R-N) of the same compound?
A: The value was −9.3 fold.

Q: What about the “Stress enhanced protein 2 fold change” value ([2]; ECO-R-T vs ECO-R-N) of the same compound?
A: The value was 2.5 fold.

Q: What about the “UGT73C2 Fold Change” value ([2]; ECO-R-T vs ECO-R-N) of the same compound?
A: The value was 4.7 fold.

Q: What about the UGT73D1 fold change ([2]; ECO-R-T vs ECO-R-N) of the same compound?
A: The UGT73D1 fold change was 5.3 fold and 6.9 fold and 4.8 fold.

Q: And the UGT73E1 fold change ([2]; ECO-R-T vs ECO-R-N)?
A: The UGT73E1 fold change was 3.0 fold.

Q: What about the “UGT74G1 Fold Change” value ([2]; ECO-R-T vs ECO-R-N) of the same compound?
A: The value was 4.6 fold and 4.5 fold.

Q: And the UGT75D1 fold change ([2]; ECO-R-T vs ECO-R-N)?
A: The UGT75D1 fold change was 7.4 fold.

Q: And the “UGT83A1 Fold Change” value ([2]; ECO-R-T vs ECO-R-N)?
A: The value was 2.3 fold.

Q: What about the “acetyl-coenzyme A synthetase fold change” value ([2]; ECO-R-T vs ECO-R-N) of the same compound?
A: The value was −8.4 fold.

Q: What about the “disease resistance protein RPM1 fold change” value ([2]; ECO-R-T vs ECO-R-N) of the same compound?
A: Its value is 7.1 fold.

Q: And the “ferredoxin 6 fold change” value ([2]; ECO-R-T vs ECO-R-N)?
A: Its value is < −2.4 fold.

Q: And the “fructose-1,6-bisphosphatase fold change” value ([2]; ECO-R-T vs ECO-R-N)?
A: The value was −9.3 fold.

Q: What about the “glutamine synthetase fold change” value ([2]; ECO-R-T vs ECO-R-N) of the same compound?
A: The value was −10.5 fold.

Q: And the “malate dehydrogenase fold change” value ([2]; ECO-R-T vs ECO-R-N)?
A: The value was −10.8 fold.

Q: What about the “peroxidase 5 fold change” value ([2]; ECO-R-T vs ECO-R-N) of the same compound?
A: The value was −3.1 fold.

Q: And the “phenolic glucoside malonyltransferase 1 fold change” value ([2]; ECO-R-T vs ECO-R-N)?
A: The value was −3.5 fold.

Q: And the “pyruvate dehydrogenase E1 subunit fold change” value ([2]; ECO-R-T vs ECO-R-N)?
A: The value was < −10.4 fold.

Q: What about the “pyruvate phosphate dikinase fold change” value ([2]; ECO-R-T vs ECO-R-N) of the same compound?
A: Its value is −12 fold.

Q: What about the “ubiquinol cytochrome-c reductase complex core protein fold change” value ([2]; ECO-R-T vs ECO-R-N) of the same compound?
A: The value was < −8.6 fold.

Q: What about the “ATP synthase subunit(s) fold change” value ([2]; ECO-R-T vs ECO-R-N, repressed) of the same compound?
A: Its value is < −10 fold.

Q: And the TPS6 repression ([2]; ECO-R-T vs ECO-R-N, repressed)?
A: The TPS6 repression was 6.1 fold.

Q: And the “sugar transporter ERD6-like 8 repression” value ([2]; ECO-R-T vs ECO-R-N, repressed)?
A: Its value is 4.2 fold.

Q: And the “sugar transporter SWEET2a repression” value ([2]; ECO-R-T vs ECO-R-N, repressed)?
A: Its value is 3.8 fold.

Q: And the “heat shock proteins fold change” value ([2]; ECO-R-T vs ECO-R-N, repressed by as much as)?
A: The value was ≤ −9.9 fold.

Q: What about the CYP72A14 fold induction ([2]; Echinochloa colona, in vivo) of the same compound?
A: Its CYP72A14 fold induction is ~3 fold.
